{
  "source": "patent US20030073815A1",
  "about": "“Adrenic acid receptor and uses thereof” (priority 2001, published 2003)",
  "key": {"[1]": {"tested_on": "oxygenation of arachidonic acid", "conditions": "cited from earlier work"}, "rabbits": {"tested_on": "rabbits", "conditions": "cited from earlier work"}, "PFI-011": {"molecular_target": "T1, PFI-011 (Homo sapiens, UniProt Q8TDT2)", "T1 construct": "expressed in transfected cells", "T1 sequence (Q8TDT2 whole entry)": "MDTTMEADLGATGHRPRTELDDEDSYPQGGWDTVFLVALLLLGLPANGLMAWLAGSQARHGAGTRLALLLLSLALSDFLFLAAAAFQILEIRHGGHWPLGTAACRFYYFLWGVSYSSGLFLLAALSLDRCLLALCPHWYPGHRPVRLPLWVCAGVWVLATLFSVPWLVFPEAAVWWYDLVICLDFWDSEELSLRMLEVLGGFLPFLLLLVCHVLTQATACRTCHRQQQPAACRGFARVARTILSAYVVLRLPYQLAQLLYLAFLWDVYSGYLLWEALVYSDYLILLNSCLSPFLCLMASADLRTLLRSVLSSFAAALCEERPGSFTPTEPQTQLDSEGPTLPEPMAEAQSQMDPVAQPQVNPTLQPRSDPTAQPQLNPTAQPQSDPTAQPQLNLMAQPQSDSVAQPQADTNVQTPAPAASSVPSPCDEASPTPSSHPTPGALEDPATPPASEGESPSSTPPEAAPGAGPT", "test": "Functional assay measuring intracellular calcium mobilisation (FLIPR)", "type": "cell-based", "conditions": "PFI-011-transfected cells compared to mock-transfected cells; Fluo3, FLIPR", "protocol": "5×10^6 cells of a suitable host cell line, chosen to express a low number of endogenous receptors (e.g. HEK293 or CHO-K1) and engineered to stably express certain Gα proteins (e.g. mouse Gα15 (Wilkie, T. M. et al (1991) Proc. Natl. Acad. Sci. 88, 10049-10053), a chimeric Gql5/Gql5 α-subunit, or human Gα16 (Amatruda, TT 3rd et al (1991) Proc. Natl. Acad. Sci. 88, 5587-5591)), were transiently transfected with 7.5 μg of cDNA encoding PFI-011 in a suitable mammalian cell expression vector, or vector alone, using Lipofectamine Plus® reagent (Gibco BRL) as per the manufacturer's protocol. […]\nFluorescence Imaging Plate Reader (FLIPR®) technology was employed as a means to detect activation of PFI-011 by various potential GPCR agonists.\nCells were transfected as described in Example 3. […] The FLIPR® processing involved reading the fluorescence for all samples for 2 minutes; during this time the fluorescence baseline was determined for 10 seconds. The desired amount of compounds (i.e. potential GPCR agonists) was then automatically transferred to the wells and the fluorescence was continuously monitored for the remainder of the time. […]\nCompounds capable of acting as agonists for the receptor were identified by them causing a transient rise in fluorescence, and therefore in intracellular calcium, in the cells."}},
  "note": "Entries after “also recorded” stand apart in the source; their conditions may differ.",
  "data": [
    {"smiles": "CCCCC/C=C\\C/C=C\\C/C=C\\C/C=C\\CCCCCC(=O)O", "note": "[adrenic acid]", "values": [
      {"measurement": "oxygenation of arachidonic acid; synthesis of prostaglandins PGF2, PGE2 & PGD2", "setting": "[1]", "result": "inhibit the oxygenation of arachidonic acid"},
      {"measurement": "blood pressure and renal flow", "setting": "rabbits", "result": "reduce blood pressure and renal flow"},
      {"measurement": "response of PFI-011-expressing cells (fluorescence change over time, transient rise in intracellular calcium)", "setting": "PFI-011", "result": "response of PFI-011-expressing cells to adrenic acid; also recorded: responds to adrenic acid"}
    ]}
  ]
}
